These results are taken from patent publication US3931196A, “Phosphinolines and phosphindolines” (Monash University, priority 1972, dated 1976).

The nature of data set [1]: McKenzie Beechey Mouse Tail Stimulation Test (analgesic activity). In kind it is in vivo. The settings on record: compound active at 16mg/kg. The method, then:
The compounds described above were subjected to a Mouse Writhing Test and to the McKenzie Beechey Mouse Tail Stimulation Test (1962, Archives Internationales de Pharmacodynamae et de Therapie, 135) to determine their analgesic activities. The test compounds were prepared as 1.0% solutions in carboxymethylcellulose. The control in all tests was carboxymethylcellulose.

Another data set can be described thus: toxicity test (LD50). To be noted: in vivo, species and route not given.

What is called LD50 is the dose expected to kill half of the subjects tested. Lower therefore signals greater toxicity. Take `CN(C)CCP1(=S)CCCc2ccccc21` (centres unmarked) [Compound 19, 1-(2-N,N-Dimethylamino)ethyl-1-thio-1,2,3,4-tetrahydrophosphinoline]: the “activity relative to morphine in the Tail Stimulation Test” value in data set [1] is “comparable to morphine”. Besides, the LD50 in “toxicity test (LD50)” is 170 mg/kg.
